The values that follow come from US8673313B2, “Cell penetrating peptides and its use fused to biomolecules with therapeutic action” (priority 2007, dated 2014).

In assay [1] the test system is J774 cells. Nature of the assay: Fluorescence microscopy: internalization of the cargo protein E7 to the cell. Format: cell-based. Conditions: 1.66 μM protein, J774, 37° C., 30 min, 1 hour and 2 hours, FIG. 4. As to the method: Cells J774 grown on sterile glass cover slips of 22 mm overnight at 37° C. and 5% of CO2 with RPMI 1640, 10% inactivated calf fetal serum and 2 mM de glutamine. Then, different glass cover slips incubated with 1.66 μM fusion protein LALF-E7, 1.66 μM of protein E7 and PBS (as negative control) a 37° C. per 30 min, 1 hour and 2 hours. CasKi cells (human cells expressing HPV 16) grown as positive control in the same experimental conditions.
After incubation the cells were washed briefly with PBS and fix cells by 4% paraformaldehide per 20 min at room temperature. Wash in three changes of PBS. The permeabilization of the cells was with 0.5% Tritón X-100 for 15 min a room temperature. Wash in three changes of PBS. Then, the cells were incubating for 1 hour in 1% blocking SFB in PBS at room temperature. Wash in three changes of PBS. Cells were incubated with goat IgG anti E7/HPV 16 polyclonal antibody (Santa Cruz) diluted in PBS 1:50. Wash extensively with PBS. Incubate with anti-goat-fluorescein IgG polyclonal antibody (Santa Cruz) diluted in PBS 1:50 for 45 minutes in a dark chamber. Wash extensively with PBS. Mount cover slip with aqueous mounting medium. Examine using a fluorescence microscope with appropriate filters.

The test system of assay [2] is J774 cells. The assay can be described thus: Western blot: internalization of the cargo protein E7 to the cell. Format: cell-based. Conditions: 25 μM protein, J774, 4 hours at 37° C., FIG. 5. As for the experimental part: The cells J774 grown overnight at 37° C. and 5% of CO2 with RPMI 1640, 10% inactivated calf fetal serum and 2 mM de glutamine. After that, the cell were aliquoted in tubes with 5×10^6 cells each and incubated with 25 μM of fusion protein LALF-E7, 25 μM of protein E7 and PBS during 4 hours at 37° C. The sedimentation of the cells was made by a centrifugation to 1000 rpm by 10 minutes. Wash pellet in three changes of PBS. Cells were ruptured in 100 μL of RIPA buffer (Promega) mixed in vortex per 10 second and 2 min in ice. The sedimentation of the broken cells was made by a centrifugation to 12000 rpm by 15 minutes. Protein concentration was determined to the cell extract and rum 10 μg of total protein in 15% polyacrilamide gel. Subsequently the gel was transferred to a nitrocellulose membrane. The membrane was incubated for 2 hours at room temperature with an IgG goat polyclonal antibody anti-E7 HPV 16 (Santa Cruz) diluted in PBS (1:100). Wash in three changes of PBS. Subsequently, the membrane was incubated for 45 minutes at room temperature and in a dark room with an anti-goat IgG peroxidase conjugate (Sigma) diluted in PBS (1:5000). Wash in three changes of PBS. Finally the ECL system from Amersham Pharmacia Biotech was used.

The test system of the next assay is murine splenocytes. Nature of the assay: Internalization of the analogues L-2 and L-20 to murine splenocytes (confocal microscopy). Format: cell-based, mice C57BL/6. To be noted: 0.8 mg biotinylated peptide (278-280 μM), 37° C., 10 min to 18 h, FIG. 2. As to the method: For the splenocytes isolation, the mice C57BL/6 were sacrificed by break-up of the cervical and the splenocytes were removed aseptically. The cellular suspensions of the animals by each group met in pool and they were homogenized smoothly. The splenocytes were washed and the erythrocytes were lysed with a solution of NH4C10.83%. After washing, the splenocytes are divided en different tubes with 20×10^6 of cells in 10 mL of fresh medium RPMI 1640 supplemented with 7% de fetal bovine serum. Each preparation was incubated with 0.8 mg of the biotinylated peptides L-2 (278 μM) y L-20 (280 μM) in different times: 10 min, 30 min, 1 h and 18 h. The incubations were at 37° C. and 5% de CO2. The cells on sterile glass cover slips were fixed, permeabilized and treated with propidium Iodide for to stain the nucleus and with streptavidine-fluorescein for detection of peptides inside the cells.

The subject of assay [3] is cells with different histological origins (J774, CasKi, HeLa, TC-1, Hep2). The assay can be described thus: Internalization of CPP LALF or their analogues to cells with different histological origins (fluorescence microscopy). To be noted: 25 or 50 μM biotinylated peptide, 37° C., streptavidin-fluorescein, FIG. 1. Format: cell-based. As for the experimental part:
(§1) Different cellular lines were used in this realization (Table 1). Cells grown on sterile glass cover slips of 22 mm overnight at 37° C. and 5% of CO2 with RPMI 1640, 10% inactivated calf fetal serum and 2 mM de glutamine. Then, 25 or 50 μM de CPP LALF or their biotinylated analogues L-2 y L-20 added and incubated at 37° C. and 4° C. in different times (10 min, 20 min, 30 min, 1 h y 2 h). Wash briefly with PBS and fix cells by 4% paraformaldehide per 20 min at room temperature. Wash in three changes of PBS. The permeabilization of the cells was with 0.5% Tritón X-100 for 15 min a room temperature. Wash in three changes of PBS. The cells were incubating for 1 hour in 1% blocking SFB in PBS at room temperature. Wash in three changes of PBS. Incubate with 1:50000 in PBS streptavidin-fluorescein for 45 minutes in a dark chamber. Wash extensively with PBS. Mount cover slip with aqueous mounting medium. Examine using a fluorescence microscope with appropriate filters.
(§2) As a negative control were used not related biotinylated and cells without peptide.

The subject of assay [4] is J774 cells. Nature of the assay: Fluorescence microscopy: internalization of the cargo protein GFP to the cell. To be noted: FIG. 6. Format: cell-based. The source says: The protein produced in E. coli from the recombinant fusion LALF-GFP (GFP-English, green fluorescence protein) was used to verify that the CPP LALF or its analogues could internalize the cargo protein. The GFP (GenBank Accession #U55762) was obtained using the polymerase chain reaction from plasmid pEGFP-N1 of Clontech using oligonucleotides with SEQ ID N0. 11 and 12. Both oligonucleotides have restricted sites used for cloning (HindIII-sense and BamHI-antisense).
For the construction of recombinant fragment, synthetic LALF and GFP gene obtained by PCR were inserted with the T4 ligase in the vector pM238, similar as in the example III. The recombinant clone is identified with the SEQ ID N0. 13 and 14.
With the recombinant and purified LALF-GFP protein was performed an similar experiment to the example V, but in this case the cells J774 incubated with LALF-GFP, LALF biotinilade, GFP and PBS.

In assay [5] the test system is J774 cells. The assay can be described thus: Internalization of CPP LALF in J774 cells at 4° C. (fluorescence microscopy). Format: cell-based. To be noted: J774, 4° C., 10 min incubation, FIG. 1. As to the method:
as §1, §2

Ends that are not written are not given here.

Turning to “E7: recombinant protein E7 of HPV 16, unfused comparator [reference compound]”, in the assay with J774 cells [1], the “internalization of E7 (fluorescent cells, anti-E7 antibody)” value is on record as “Negative results”. Besides, the “detection of protein in cell extract by anti-E7 antibody (Western blot)” value in the assay with J774 cells [2] is recorded as “not detected any recognition”.
Consider “L-12: analogous peptide of LALF 32-51 with alanine substitution in the position 12 (SEQ ID N0. 4) (HYRIKPTFRRLAWKYKGKFW; Artificial Sequence Description Analogue L-12)”, for which the internalization into splenocytes entry in the assay on murine splenocytes was “similar”. Besides, in assay [3], the internalization into cells result is reported as “similar”.
Take “L-20: analogous peptide of LALF 32-51 with alanine substitution in the position 20 (SEQ ID N0. 5) (HYRIKPTFRRLKWKYKGKFA; Artificial Sequence Description Analogue L-20)”: the internalization into splenocytes entry in the assay on murine splenocytes is recorded as “internalized in a short times of incubation (30 min)”.
In the case of “LALF-biotinilado: biotinylated CPP LALF peptide used as comparator in the GFP experiment (HYRIKPTFRRLKWKYKGKFW; also: biotinylated, site not given here; UniProt P07086 32-51, looked up, fragment)”, in the assay with J774 cells [4], the “internalization of GFP (fluorescent cells)” value is listed as “fluorescent cells”.
Take “LALF: peptide corresponding to the region 32-51 of LALF protein (SEQ ID N0. 1) (HYRIKPTFRRLKWKYKGKFW; Artificial Sequence Description Synthetic Gen CPP LALF)”: the internalization into splenocytes entry in the assay on murine splenocytes is listed as “similar”. Also, the internalization into cells entry in assay [3] was “internalized in different cell types and short incubation times (30 min)”; in the assay on J774 cells [5], “internalized in the cells J774 with only 10 min of the incubation at 4 °C”.
